In patent US12077503B2, “Substituted cyclic amides and their use as herbicides” (FMC CORPORATION, priority 2015, dated 2024):

Experiments:
Type in all cases: in vivo
[1] = tested on: ivy-leaved morning glory (Ipomoea hederacea); assay: Test G Pre-Emergence Protocol; details: Ipomoea, pre-emergence, 312 h, evaluated after 13 days; for pest or weed control at 15.625 g/ha: 15.625 g ai/ha, read-out: Morning-glory, Ivy-leaved damage rating (100=total damage to plant; 0=no damage to plant); for pest or weed control at 62.5 g/ha: 62.5 g ai/ha, 100=total damage to plant, 0=no damage to plant, read-out: plant damage rating, Morningglory, Ivy-leaved; for pest or weed control at 250 g/ha: 250 g ai/ha, read-out: Morningglory, Ivy-leaved damage rating (100=total damage to plant; 0=no damage to plant)
Procedure, shortened: (§1)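 Pots of seeds in standard soil were grown for one day in a glasshouse (24/16 °C day/night, 14 h light, 65% humidity), then sprayed with compound in acetone/water 50:50 with 0.5% Tween 20 at 15.625, 62.5 or 250 g/ha. Damage was scored after 13 days on a 0 (none) to 100 (total) scale.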

[2] = tested on: barnyardgrass (Echinochloa crus-galli); assay: Test G Pre-Emergence Protocol; details: Echinochloa crus-galli, pre-emergence, 312 h, evaluated after 13 days; for pest or weed control at 15.625 g/ha: 15.625 g ai/ha, read-out: Barnyard grass damage rating (100=total damage to plant; 0=no damage to plant); for pest or weed control at 62.5 g/ha: 62.5 g ai/ha, 100=total damage to plant, 0=no damage to plant, read-out: plant damage rating, Barnyardgrass; for pest or weed control at 250 g/ha: 250 g ai/ha, read-out: Barnyardgrass damage rating (100=total damage to plant; 0=no damage to plant)
Procedure, shortened: as §1

[3] = tested on: redroot pigweed (Amaranthus retroflexus); assay: Test G Pre-Emergence Protocol; details: Amaranthus retroflexus, pre-emergence, 312 h, evaluated after 13 days; for pest or weed control at 15.625 g/ha: 15.625 g ai/ha; for pest or weed control at 15.625 g/ha / pest or weed control at 250 g/ha: read-out: Pigweed, Redroot damage rating (100=total damage to plant; 0=no damage to plant); for pest or weed control at 62.5 g/ha: 62.5 g ai/ha, 100=total damage to plant, 0=no damage to plant, read-out: plant damage rating, Pigweed, Redroot; for pest or weed control at 250 g/ha: 250 g ai/ha
Procedure, shortened: as §1

corn (Zea mays) [4] = assay: Test G Pre-Emergence Protocol; details: Zea mays, pre-emergence, 312 h, evaluated after 13 days; for plant injury at 15.625 g/ha: 15.625 g ai/ha; for plant injury at 15.625 g/ha / plant injury at 250 g/ha: read-out: Corn damage rating (100=total damage to plant; 0=no damage to plant); for plant injury at 62.5 g/ha: 62.5 g ai/ha, 100=total damage to plant, 0=no damage to plant, read-out: plant damage rating, Corn; for plant injury at 250 g/ha: 250 g ai/ha
Procedure, shortened: as §1

[5] = tested on: velvetleaf (Abutilon theophrasti); assay: Test G Pre-Emergence Protocol; details: Abutilon theophrasti, pre-emergence, 312 h, evaluated after 13 days; for pest or weed control at 15.625 g/ha: 15.625 g ai/ha; for pest or weed control at 15.625 g/ha / pest or weed control at 250 g/ha: read-out: Velvetleaf damage rating (100=total damage to plant; 0=no damage to plant); for pest or weed control at 62.5 g/ha: 62.5 g ai/ha, 100=total damage to plant, 0=no damage to plant, read-out: plant damage rating, Velvetleaf; for pest or weed control at 250 g/ha: 250 g ai/ha
Procedure, shortened: as §1

[6] = tested on: giant foxtail (Setaria faberi); assay: Test G Pre-Emergence Protocol; details: Setaria faberi, pre-emergence, 312 h, evaluated after 13 days; for pest or weed control at 15.625 g/ha: 15.625 g ai/ha; for pest or weed control at 15.625 g/ha / pest or weed control at 250 g/ha: read-out: Foxtail, Giant damage rating (100=total damage to plant; 0=no damage to plant); for pest or weed control at 62.5 g/ha: 62.5 g ai/ha, 100=total damage to plant, 0=no damage to plant, read-out: plant damage rating, Foxtail, Giant; for pest or weed control at 250 g/ha: 250 g ai/ha
Procedure, shortened: as §1

[7] = tested on: ivy-leaved morning glory (Ipomoea hederacea); assay: Test G Post-Emergence Protocol; details: Ipomoea, post-emergence, 312 h; for pest or weed control at 15.625 g/ha: 15.625 g ai/ha, evaluated after 13 days (100=total damage to plant; 0=no damage to plant), read-out: Morningglory, Ivy-leaved damage rating; for pest or weed control at 62.5 g/ha: 62.5 g ai/ha, read-out: Morningglory, Ivy-leaved damage rating (100=total damage to plant; 0=no damage to plant); for pest or weed control at 62.5 g/ha / pest or weed control at 250 g/ha: evaluated after 13 days; for pest or weed control at 250 g/ha: 250 g ai/ha, read-out: damage to plant, Morningglory, Ivy-leaved (100=total damage to plant; 0=no damage to plant)
Procedure, shortened: (§2)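 Post-emergence herbicidal damage, scored visually 0–100 at 13 days. Application at 15.625, 62.5 or 250 g/ha onto 8-day-old plants grown under glasshouse control.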

[8] = tested on: barnyardgrass (Echinochloa crus-galli); assay: Test G Post-Emergence Protocol; details: Echinochloa crus-galli, post-emergence, 312 h; for pest or weed control at 15.625 g/ha: 15.625 g ai/ha, evaluated after 13 days (100=total damage to plant; 0=no damage to plant), read-out: Barnyardgrass damage rating; for pest or weed control at 62.5 g/ha: 62.5 g ai/ha, read-out: Barnyardgrass damage rating (100=total damage to plant; 0=no damage to plant); for pest or weed control at 62.5 g/ha / pest or weed control at 250 g/ha: evaluated after 13 days; for pest or weed control at 250 g/ha: 250 g ai/ha, read-out: damage to plant, Barnyardgrass (100=total damage to plant; 0=no damage to plant)
Procedure, shortened: as §2

[9] = tested on: redroot pigweed (Amaranthus retroflexus); assay: Test G Post-Emergence Protocol; details: Amaranthus retroflexus, post-emergence, 312 h; for pest or weed control at 15.625 g/ha: 15.625 g ai/ha, evaluated after 13 days (100=total damage to plant; 0=no damage to plant), read-out: Pigweed, Redroot damage rating; for pest or weed control at 62.5 g/ha: 62.5 g ai/ha, read-out: Pigweed, Redroot damage rating (100=total damage to plant; 0=no damage to plant); for pest or weed control at 62.5 g/ha / pest or weed control at 250 g/ha: evaluated after 13 days; for pest or weed control at 250 g/ha: 250 g ai/ha, read-out: damage to plant, Pigweed, Redroot (100=total damage to plant; 0=no damage to plant)
Procedure, shortened: as §2

corn (Zea mays) [10] = assay: Test G Post-Emergence Protocol; details: Zea mays, post-emergence, 312 h; for plant injury at 15.625 g/ha: 15.625 g ai/ha, evaluated after 13 days (100=total damage to plant; 0=no damage to plant), read-out: Corn damage rating; for plant injury at 62.5 g/ha: 62.5 g ai/ha, read-out: Corn damage rating (100=total damage to plant; 0=no damage to plant); for plant injury at 62.5 g/ha / plant injury at 250 g/ha: evaluated after 13 days; for plant injury at 250 g/ha: 250 g ai/ha, read-out: damage to plant, Corn (100=total damage to plant; 0=no damage to plant)
Procedure, shortened: as §2

[11] = tested on: velvetleaf (Abutilon theophrasti); assay: Test G Post-Emergence Protocol; details: Abutilon theophrasti, post-emergence, 312 h; for pest or weed control at 15.625 g/ha: 15.625 g ai/ha, evaluated after 13 days (100=total damage to plant; 0=no damage to plant), read-out: Velvetleaf damage rating; for pest or weed control at 62.5 g/ha: 62.5 g ai/ha, read-out: Velvetleaf damage rating (100=total damage to plant; 0=no damage to plant); for pest or weed control at 62.5 g/ha / pest or weed control at 250 g/ha: evaluated after 13 days; for pest or weed control at 250 g/ha: 250 g ai/ha, read-out: damage to plant, Velvetleaf (100=total damage to plant; 0=no damage to plant)
Procedure, shortened: as §2

[12] = tested on: giant foxtail (Setaria faberi); assay: Test G Post-Emergence Protocol; details: Setaria faberi, post-emergence, 312 h; for pest or weed control at 15.625 g/ha: 15.625 g ai/ha, evaluated after 13 days (100=total damage to plant; 0=no damage to plant), read-out: Foxtail, Giant damage rating; for pest or weed control at 62.5 g/ha: 62.5 g ai/ha, read-out: Foxtail, Giant damage rating (100=total damage to plant; 0=no damage to plant); for pest or weed control at 62.5 g/ha / pest or weed control at 250 g/ha: evaluated after 13 days; for pest or weed control at 250 g/ha: 250 g ai/ha, read-out: damage to plant, Foxtail, Giant (100=total damage to plant; 0=no damage to plant)
Procedure, shortened: as §2

CN1C[C@@H](c2ccc(C(F)(F)F)cc2)[C@H](C(=O)Nc2ncnn2C)C1=O (racemic) [Compound 1643]
0%: pest or weed control at 15.625 g/ha [1] | pest or weed control at 62.5 g/ha [1] | pest or weed control at 250 g/ha [1] | pest or weed control at 15.625 g/ha [2] | pest or weed control at 62.5 g/ha [2] | pest or weed control at 250 g/ha [2] | pest or weed control at 15.625 g/ha [3] | pest or weed control at 62.5 g/ha [3] | pest or weed control at 250 g/ha [3] | plant injury at 15.625 g/ha (corn (Zea mays) [4]) | plant injury at 62.5 g/ha (corn (Zea mays) [4]) | plant injury at 250 g/ha (corn (Zea mays) [4]) | pest or weed control at 15.625 g/ha [5] | pest or weed control at 62.5 g/ha [5] | pest or weed control at 250 g/ha [5] | pest or weed control at 15.625 g/ha [6] | pest or weed control at 62.5 g/ha [6] | pest or weed control at 250 g/ha [6] | pest or weed control at 15.625 g/ha [7] | pest or weed control at 62.5 g/ha [7] | pest or weed control at 250 g/ha [7] | pest or weed control at 15.625 g/ha [8] | pest or weed control at 62.5 g/ha [8] | pest or weed control at 250 g/ha [8] | pest or weed control at 15.625 g/ha [9] | pest or weed control at 62.5 g/ha [9] | pest or weed control at 250 g/ha [9] | plant injury at 15.625 g/ha (corn (Zea mays) [10]) | plant injury at 62.5 g/ha (corn (Zea mays) [10]) | plant injury at 250 g/ha (corn (Zea mays) [10]) | pest or weed control at 15.625 g/ha [11] | pest or weed control at 62.5 g/ha [11] | pest or weed control at 250 g/ha [11] | pest or weed control at 15.625 g/ha [12] | pest or weed control at 62.5 g/ha [12] | pest or weed control at 250 g/ha [12]

Cc1cnc(NC(=O)[C@@H]2C(=O)N(C)C[C@H]2c2ccc(C(F)(F)F)cc2)cn1 (racemic) [Compound 1648]
0%: pest or weed control at 15.625 g/ha [1] | pest or weed control at 62.5 g/ha [1] | pest or weed control at 250 g/ha [1] | pest or weed control at 15.625 g/ha [2] | pest or weed control at 62.5 g/ha [2] | pest or weed control at 250 g/ha [2] | pest or weed control at 15.625 g/ha [3] | pest or weed control at 62.5 g/ha [3] | pest or weed control at 250 g/ha [3] | plant injury at 15.625 g/ha (corn (Zea mays) [4]) | plant injury at 62.5 g/ha (corn (Zea mays) [4]) | plant injury at 250 g/ha (corn (Zea mays) [4]) | pest or weed control at 15.625 g/ha [5] | pest or weed control at 62.5 g/ha [5] | pest or weed control at 250 g/ha [5] | pest or weed control at 15.625 g/ha [6] | pest or weed control at 62.5 g/ha [6] | pest or weed control at 250 g/ha [6] | pest or weed control at 15.625 g/ha [7] | pest or weed control at 62.5 g/ha [7] | pest or weed control at 250 g/ha [7] | pest or weed control at 15.625 g/ha [8] | pest or weed control at 62.5 g/ha [8] | pest or weed control at 250 g/ha [8] | pest or weed control at 15.625 g/ha [9] | pest or weed control at 62.5 g/ha [9] | pest or weed control at 250 g/ha [9] | plant injury at 15.625 g/ha (corn (Zea mays) [10]) | plant injury at 62.5 g/ha (corn (Zea mays) [10]) | plant injury at 250 g/ha (corn (Zea mays) [10]) | pest or weed control at 15.625 g/ha [11] | pest or weed control at 62.5 g/ha [11] | pest or weed control at 250 g/ha [11] | pest or weed control at 15.625 g/ha [12] | pest or weed control at 62.5 g/ha [12] | pest or weed control at 250 g/ha [12]
